The results in this text go back to US10744117B2, “PPARG modulators for the treatment of osteoporosis” (The Scripps Research Institute, priority 2014, dated 2020).

Molecules are shown by their SMILES. “Also recorded” adds a separate entry of the source.

Assay [1] concerns lean C57BL/6 mice. Description: Bone study in lean C57BL/6 mice on regular diet, 8 weeks. In kind it is in vivo, mouse. Particulars: supplemented RD. The method, then:
In parallel, a group of sex- and age-matched control (n=5) was fed regular diet (RD) providing 12 kcal % from fat (2016 Teklad Global, Harlan Laboratories, Indianapolis, Ind.). […] The animal treatment and care protocols conformed to the NIH Guidelines and were performed under the University of Toledo Health Science Campus Institutional Animal Care and Utilization Committee protocol.
(§1) Fat and lean mass were evaluated at the beginning and at the end of experiment using a Minispec mq10 NMR analyzer (Bruker, Billerica, Mass.). Glucose disposal (glucose tolerance test, GTT) was measured after ip injection of 2 g/kg glucose to animals fasted for 4 hrs. Blood glucose was measured using the AlphaTRAK system appropriate for mice (Abbott Laboratories, North Chicago, Ill.). For indirect calorimetry, mice were evaluated in metabolic cages (CLAMS; Columbus Instruments, Columbus, Ohio) for 4 days with a free access to food and water. Mice were housed individually at room temperature (22C) under an alternating 12-h light/dark cycle. After one day adaptation, oxygen (VO2) consumption, carbon dioxide (VCO2) production, physical activity, and heat production were measured to determine energy expenditure. Respiratory exchange ratio was calculated as a ratio of the O2 consumption and the CO2 production. […]

In assay [2] the test system is PPARG. Description: Cell-based transactivation assay, 3xPPRE-luciferase reporter co-transfected with PPARG in COS-1 cells. Particulars: PPRE-luciferase. (In general: Reporter assays use an easily measured gene product as a stand-in for the process of interest.)
Assay [3] relates to DIO C57BL/6 mice. Description: Bone and marrow fat study in diet induced obesity (DIO) C57BL/6 mice on HFD, 4 wks. Particulars: 25 mg/kg/d. In kind it is in vivo, mouse. The method, then:
The compound IA-48 (SR10171) acts as an antagonist to PPARy pro-adipocytic activity, and it has been further tested in vivo for its effect on bone. SR10171 was administered to hyperglycemic C57BL/6 mice, 12 wks old males, that were purchased from the Jackson Laboratories (Bar Harbor, Me.). DIO mice: Animals were fed ad libitum for 11 wks high fat diet (HFD) providing 45 kcal % from fat (D12451; Research Diets, New Brunswick, N.J.) to develop diet induced obesity (DIO).
In parallel, a group of sex- and age-matched control (n=5) was fed regular diet (RD) providing 12 kcal % from fat (2016 Teklad Global, Harlan Laboratories, Indianapolis, Ind.). […]
as §1, with “Mice were housed individually at room temperature (22C) under an alternating 12-h light/dark cycle.” left out, “expenditure.” for “expenditure. Respiratory exchange ratio was calculated as a ratio of the O2 consumption and the CO2 production.”

For assay [4], the system named is obese mice fed a high fat diet. Description: Glucose tolerance test in mice on RD or HFD (FIG. 7). Format: in vivo, mouse. Particulars: mice fasted, bolus of glucose, plasma glucose over time.

In the case of `CN(CCOc1ccc(CC2SC(=O)NC2=O)cc1)c1ccccn1` (centres unmarked) [Rosiglitazone, rosiglitazone], the “loss of trabecular bone mass” value in assay [1] stood at 30%. The “activation of the reporter” value in assay [2] was “about 5 fold”. Besides, in assay [3], the “decrease of trabecular bone mass” value is 70%. In assay [3] (trabecular region of tibia), the “bone marrow fat content (osmium staining)” value was “significant fat accumulation in the bone marrow; also recorded: significantly increased fat content in the bone marrow”. The “glucose tolerance / glucose disposal” value in assay [4] was “insulin sensitization effects and improved glucose disposal”.
